Test results reported in article PMC9727064, “Performance assessment and economic analysis of a human Liver-Chip for predictive toxicology” (Communications Medicine, 2022).
Where two headings read alike, the source gives them in different places.

What was measured:
[1] = system: clinical drug-induced liver injury; details: clinical DILI severity category 1 to 5; cited from earlier work
[2] = system: 3D spheroid cultures of primary human hepatocytes; details: cited from earlier work; for Spheroid false negative: Yes/No, also No for drugs not tested in spheroid; for Spheroid MOS: 3D hepatic spheroids, previously published data
[3] = cited from earlier work
[4] = system: human Liver-Chip (primary human hepatocytes); assay: Liver-Chip alanine transaminase (ALT) release in top channel effluent (ELISA); type: cell-based
[5] = system: human Liver-Chip (hepatocyte layer); assay: Liver-Chip immunofluorescence imaging (caspase 3/7, TMRM, AdipoRed/LipidTOX); type: cell-based; details: for Immunofluorescent findings, donor one (Supplementary Figure 3) / Immunofluorescent findings, donor two (Supplementary Figure 3): day 7 post-drug administration, hepatocyte layer, top channel
Method in brief: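 Fixed Liver-Chip halves stained for lipid (LipidTOX Deep Red 1:1000 with NucBlue, 30 min RT) and MRP2 antibody; live bottom halves stained with TMRM (1:1000) plus NucBlue, 30 min at 37 °C. Confocal z-stacks (3.6 µm steps, 28–32 planes) acquired on a high-content imager at 37 °C/5% CO2.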

human Liver-Chip = assay: Liver-Chip DILI prediction: minimum toxic concentration and margin of safety (MOS)-like figure; details: free IC50 concentration in the assay divided by total concentration of drug in human plasma at Cmax;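 also: Toxic concentration is the lowest across albumin IC50 and ALT and morphology endpoints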
Description: Because the fundamental principles of drug action dictate that free (unbound) drug concentrations drive drug effects, we explored an alternative methodology for calculating the MOS-like values by accounting for protein binding using a previously reported approach. Accordingly, we reanalyzed the findings for the 27 drugs in our study by accounting for protein binding.

[6] = expanded drug list, lowest concentration causing an increase in ALT release
[7] = lowest concentration causing an increase in ALT protein

SMILES	Garside DILI rank [1]	Spheroid false negative [2]	Expected Fraction Unbound in Plasma ([3]; plasma, ref Lau, S.W.J. (65))	ALT Donor 1 [4, 6]	Immunofluorescent findings, donor one (Supplementary Figure 3) [5]	IF imaging Donor 1 ([5]; expanded drug list)	Chip MOS donor 1 (human Liver-Chip)	Spheroid MOS [2]	ALT Donor 1 [4, 7]	ALT Donor 2 [4, 7]	Immunofluorescent findings, donor two (Supplementary Figure 3) [5]	IF imaging Donor 1 ([5]; matched pair analysis)	IF imaging Donor 2 ([5]; matched pair analysis)	Chip MOS both donors (human Liver-Chip)	Chip MOS donor 2 (human Liver-Chip)	other results
CC[C@H]1OC(=O)[C@H](C)C(=O)[C@H](C)[C@@H](O[C@@H]2O[C@H](C)C[C@H](N(C)C)[C@H]2O)[C@](C)(OC)C[C@@H](C)C(=O)[C@H](C)[C@H]2N(CCCCn3cnc(-c4cccnc4)c3)C(=O)O[C@]12C [Telithromycin]	1	No	0.4	30 unbound human Cmax multiplier	Apoptosis	Apoptosis	6	–	–	–	–	–	–	–	–	ALT change in words ([4]; Liver-Chip effluent): concomitant increase; Immunofluorescence staining result in words ([5]; caspase 3/7 (apoptosis) or TMRM (mitotoxicity), 7 days): apoptosis-mediated cell death
Cc1ccc(C(=O)c2cc(O)c(O)c([N+](=O)[O-])c2)cc1 [Tolcapone]	1	No	0.0012	–	Mitotoxicity	–	0.004	0.3	100 multiples of the unbound human Cmax	30 multiples of the unbound human Cmax	Mitotoxicity	Mitotoxicity	Mitotoxicity	0.004	0.05	–
Cc1c(C)c2c(c(C)c1O)CCC(C)(COc1ccc(CC3SC(=O)NC3=O)cc1)O2 (stereo not shown) [Troglitazone]	1	No	–	–	Apoptosis	–	0.03	2.3	300 multiples of the unbound human Cmax	300 multiples of the unbound human Cmax	Apoptosis	Apoptosis	Apoptosis	0.03	0.1	Expected Fraction Unbound in Plasma ([3]; plasma, reference data from the literature, no reference): 0.0011
CC(c1cc2ccccc2s1)N(O)C(N)=O (stereo not shown) [Zileuton]	2	Yes	–	> 100 unbound human Cmax multiplier	No findings	No findings	>7	>7.7	–	–	No findings	–	–	15	15	plasma protein bound [3]: > 93%; Expected Fraction Unbound in Plasma ([3]; human plasma, ref Scott, L. J. (69)): 0.07; ALT Donor 2 [4, 6]: > 300 unbound human Cmax multiplier; IF imaging Donor 2 ([5]; expanded drug list): No findings
